# According to ChEMBL document CHEMBL5338723, “Emerging Target-Directed Approaches for the Treatment and Diagnosis of Microbial Infections” (J Med Chem, 2023):
# Key:
# Acinetobacter baumannii [1] = assay: Antimicrobial activity against Acinetobacter baumannii ATCC 17978 assessed as microbial growth inhibition under iron-deficient condition; assay type: functional
# Salmonella typhimurium = assay: Antimicrobial activity against Salmonella enterica subsp. enterica serovar Typhimurium assessed as increase in microbial growth inhibition; assay type: functional
# Salmonella enteritidis = assay: Antimicrobial activity against Salmonella enterica subsp. enterica serovar Enteritidis assessed as increase in microbial growth inhibition; assay type: functional
# Pseudomonas aeruginosa [2] = assay: Antibacterial activity against Pseudomonas aeruginosa KW799/61 assessed as microbial growth inhibition incubated for 20 hrs in iron depleted media by CLSI protocol based broth microdilution method; assay type: functional
# Pseudomonas aeruginosa [3] = assay: Antibacterial activity against Pseudomonas aeruginosa Pa4 assessed as microbial growth inhibition incubated for 20 hrs in iron depleted media by CLSI protocol based broth microdilution method; assay type: functional
# Pseudomonas aeruginosa [4] = assay: Antibacterial activity against Pseudomonas aeruginosa PAO1 assessed as microbial growth inhibition incubated for 20 hrs in iron depleted media by CLSI protocol based broth microdilution method; assay type: functional
# Pseudomonas aeruginosa [5] = assay: Antibacterial activity against Wild type Pseudomonas aeruginosa KW799 assessed as microbial growth inhibition incubated for 20 hrs in iron depleted media by CLSI protocol based broth microdilution method; assay type: functional
# Acinetobacter baumannii [6] = assay: Antimicrobial activity against Acinetobacter baumannii ARC 3484 assessed as microbial growth inhibition; assay type: functional
# Acinetobacter baumannii [7] = assay: Antimicrobial activity against Acinetobacter baumannii ARC 3486 assessed as microbial growth inhibition; assay type: functional
# Acinetobacter baumannii [8] = assay: Antimicrobial activity against Acinetobacter baumannii ATCC 17961 assessed as microbial growth inhibition; assay type: functional
# Acinetobacter baumannii [9] = assay: Antimicrobial activity against Acinetobacter baumannii ARC 5081 assessed as microbial growth inhibition; assay type: functional
# Acinetobacter baumannii [10] = assay: Antimicrobial activity against Acinetobacter baumannii ATCC 17978 pNT221 assessed as microbial growth inhibition; assay type: functional
# Acinetobacter baumannii [11] = assay: Antimicrobial activity against Acinetobacter baumannii ATCC BAA 1800 assessed as microbial growth inhibition; assay type: functional
# Acinetobacter baumannii [12] = assay: Antimicrobial activity against Acinetobacter baumannii ATCC BAA 1710 assessed as microbial growth inhibition; assay type: functional
# Acinetobacter baumannii [13] = assay: Antimicrobial activity against Acinetobacter baumannii ATCC BAA 1793 assessed as microbial growth inhibition; assay type: functional
# Acinetobacter baumannii [14] = assay: Antimicrobial activity against Acinetobacter baumannii ATCC 17978 pNT165 producing carbapenamase assessed as microbial growth inhibition; assay type: functional
# Acinetobacter baumannii [15] = assay: Antimicrobial activity against Acinetobacter baumannii ATCC 17978 assessed as microbial growth inhibition; assay type: functional
# Acinetobacter baumannii [16] = assay: Antimicrobial activity against Acinetobacter baumannii ARC 5079 assessed as microbial growth inhibition; assay type: functional
# Acinetobacter baumannii [17] = assay: Antimicrobial activity against Acinetobacter baumannii ATCC 17978 pNT255 assessed as microbial growth inhibition; assay type: functional
# Acinetobacter baumannii [18] = assay: Antimicrobial activity against Acinetobacter baumannii ATCC 17978 pNT320 producing cephalosporinase assessed as microbial growth inhibition; assay type: functional
# Acinetobacter baumannii [19] = assay: Antimicrobial activity against Acinetobacter baumannii ATCC BAA 1797 assessed as microbial growth inhibition; assay type: functional
# Staphylococcus aureus [20] = assay: Antimicrobial activity against vancomycin intermediate Staphylococcus aureus assessed as microbial growth inhibition; assay type: functional
# Staphylococcus aureus [21] = assay: Antimicrobial activity against methicillin-resistant Staphylococcus aureus ATCC 33591 assessed as microbial growth inhibition; assay type: functional
# Enterococcus faecium = assay: Antimicrobial activity against vancomycin-resistant Enterococcus faecium ATCC 51559 assessed as microbial growth inhibition; assay type: functional
# Enterococcus faecalis = assay: Antimicrobial activity against vancomycin-resistant Enterococcus faecalis ATCC 51575 assessed as microbial growth inhibition; assay type: functional
# Yersinia enterocolitica = assay: Antimicrobial activity against Yersinia enterocolitica assessed as microbial growth inhibition; assay type: functional
# [22] = Cytotoxicity against human L02 assessed as lethal dose; assay type: toxicity, cell-based; settings: L02 cells, read-out: LD50 (the source's name)
# Streptococcus pneumoniae = assay: Antimicrobial activity against Streptococcus pneumoniae assessed as microbial growth inhibition; assay type: functional
# [23] = test system: Mycobacterium tuberculosis; assay: Antimicrobial activity against Mycobacterium tuberculosis H37Rv assessed as microbial growth inhibition; assay type: functional
compound,measurement,setting,value
N[C@@H](C(=O)N[C@@H]1C(=O)N2C(C(=O)O)=C(Cl)CS[C@H]12)c1ccccc1 [CEFACLOR ANHYDROUS],MIC,Acinetobacter baumannii [1],64 µg/mL
CC1(C)S[C@@H]2[C@H](NC(=O)[C@H](NC(=O)CCCc3cn(CCOCCOCCOCCNC(=O)c4cc(O)c(O)c(C(=O)N[C@H]5COC(=O)[C@@H](NC(=O)c6cccc(O)c6O)COC(=O)[C@@H](NC(=O)c6cccc(O)c6O)COC5=O)c4)nn3)c3ccccc3)C(=O)N2[C@H]1C(=O)O,MIC,Salmonella typhimurium,0.01 µM
same,MIC,Salmonella enteritidis,0.01 µM
CC(=O)Oc1cccc(C(=O)NCCCC(CCCNC(=O)c2cccc(OC(C)=O)c2OC(C)=O)(CCCNC(=O)c2cccc(OC(C)=O)c2OC(C)=O)NC(=O)CCC(=O)NC(C(=O)NC2C(=O)N3C2SC(C)(C)[C@@H]3C(=O)O)c2ccc(O)cc2)c1OC(C)=O (stereo partly specified),MIC,Pseudomonas aeruginosa [2],0.05 µM
same,MIC,Pseudomonas aeruginosa [3],0.05 µM
same,MIC,Pseudomonas aeruginosa [4],0.05 µM
same,MIC,Pseudomonas aeruginosa [5],0.05 µM
CC1=C(C(=O)O)N2C(=O)[C@@H](NC(=O)[C@H](NC(=O)CCCc3cn(CCOCCOCCOCCNC(=O)c4cc(O)c(O)c(C(=O)N[C@H]5COC(=O)[C@@H](NC(=O)c6cc([C@@H]7O[C@H](CO)[C@@H](O)[C@H](O)[C@H]7O)cc(O)c6O)COC(=O)[C@@H](NC(=O)c6cc([C@@H]7O[C@H](CO)[C@@H](O)[C@H](O)[C@H]7O)cc(O)c6O)COC5=O)c4)nn3)c3ccccc3)[C@H]2SC1,MIC,Salmonella typhimurium,0.01 µM
same,MIC,Salmonella enteritidis,0.01 µM
CC1(C)S[C@@H]2[C@H](NC(=O)[C@H](NC(=O)CCCc3cn(CCOCCOCCOCCNC(=O)c4cc(O)c(O)c(C(=O)N[C@H]5COC(=O)[C@@H](NC(=O)c6cc([C@@H]7O[C@H](CO)[C@@H](O)[C@H](O)[C@H]7O)cc(O)c6O)COC(=O)[C@@H](NC(=O)c6cc([C@@H]7O[C@H](CO)[C@@H](O)[C@H](O)[C@H]7O)cc(O)c6O)COC5=O)c4)nn3)c3ccccc3)C(=O)N2[C@H]1C(=O)O,MIC,Salmonella typhimurium,0.01 µM
same,MIC,Salmonella enteritidis,0.01 µM
CCCCCCCCCC(=O)N[C@@H](Cc1c[nH]c2ccccc12)C(=O)N[C@H](CC(N)=O)C(=O)N[C@@H](CC(=O)O)C(=O)N[C@@H]1C(=O)NCC(=O)N[C@@H](CCCNC(=O)CN(CCCCNC(=O)c2cccc(O)c2O)C(=O)c2cccc(O)c2O)C(=O)N[C@@H](CC(=O)O)C(=O)N[C@H](C)C(=O)N[C@@H](CC(=O)O)C(=O)NCC(=O)N[C@H](CO)C(=O)N[C@@H](C(C)CC(=O)O)C(=O)N[C@@H](CC(=O)c2ccccc2N)C(=O)O[C@@H]1C (stereo partly specified),MIC,Acinetobacter baumannii [6],0.2 µM
same,MIC,Acinetobacter baumannii [7],0.2 µM
same,MIC,Acinetobacter baumannii [8],0.2 µM
same,MIC,Acinetobacter baumannii [9],0.2 µM
same,MIC,Acinetobacter baumannii [10],0.2 µM
same,MIC,Acinetobacter baumannii [11],0.2 µM
same,MIC,Acinetobacter baumannii [12],0.2 µM
same,MIC,Acinetobacter baumannii [13],0.2 µM
same,MIC,Acinetobacter baumannii [14],0.2 µM
same,MIC,Acinetobacter baumannii [15],0.2 µM
same,MIC,Acinetobacter baumannii [16],0.2 µM
same,MIC,Acinetobacter baumannii [17],0.2 µM
same,MIC,Acinetobacter baumannii [18],0.2 µM
same,MIC,Acinetobacter baumannii [19],0.2 µM
CC1=C(C(=O)O)N2C(=O)[C@@H](NC(=O)[C@H](NC(=O)CCCc3cn(CCOCCOCCOCCNC(=O)c4cc(O)c(O)c(C(=O)N[C@H]5COC(=O)[C@@H](NC(=O)c6cccc(O)c6O)COC(=O)[C@@H](NC(=O)c6cccc(O)c6O)COC5=O)c4)nn3)c3ccccc3)[C@H]2SC1,MIC,Salmonella typhimurium,0.01 µM
same,MIC,Salmonella enteritidis,0.01 µM
CCCCCCCCCCN[C@@]1(C)C[C@H](O[C@H]2[C@H](Oc3c4cc5cc3Oc3ccc(cc3Cl)[C@@H](O)[C@@H](NC(=O)[C@@H](CC(C)C)NC)C(=O)N[C@@H](CC(N)=O)C(=O)N[C@H]5C(=O)N[C@H]3C(=O)N[C@H](C(=O)N[C@H](C(=O)NCCCNC(=O)[C@H](O)[C@@H](O)[C@H](O[C@H]5O[C@@H](CO)[C@@H](O)[C@@H](O)[C@@H]5O)[C@H](O)CO)c5cc(O)cc(O)c5-c5cc3ccc5O)[C@H](O)c3ccc(c(Cl)c3)O4)O[C@H](CO)[C@@H](O)[C@@H]2O)O[C@@H](C)[C@H]1O,MIC,Staphylococcus aureus [20],0.2 µM
same,MIC,Staphylococcus aureus [21],0.2 µM
same,MIC,Enterococcus faecium,0.2 µM
same,MIC,Enterococcus faecalis,0.2 µM
C[C@H]1OC(c2cccc(O)c2O)=N[C@@H]1C(=O)N[C@@H](COC(=O)c1cccc(O)c1O)C(=O)NCCCCN(O)C(=O)N[C@@H](C(=O)N[C@@H]1C(=O)N2C(C(=O)O)=C(Cl)CS[C@H]12)c1ccccc1,MIC,Acinetobacter baumannii [1],0.5 µg/mL
CC(=O)N(O)CCCCNC(=O)[C@H](COC(=O)c1cccc(O)c1O)NC(=O)[C@H]1N=C(c2cc(CCCCC(=O)N[C@@H](C(=O)N[C@@H]3C(=O)N4C(C(=O)O)=C(Cl)CS[C@H]34)c3ccccc3)cc(O)c2O)O[C@@H]1C,MIC,Acinetobacter baumannii [1],0.5 µg/mL
CN(Cc1cnc2nc(N)nc(N)c2n1)c1ccc(C(=O)N[C@@H](CCC(=O)O)C(=O)O)cc1 [METHOTREXATE],MIC,Yersinia enterocolitica,> 35.2 µM
same,CC50,[22],8 nM
same,MIC,Streptococcus pneumoniae,≥ 2.2 µM
CN[C@H](CC(C)C)C(=O)N[C@H]1C(=O)N[C@@H](CC(N)=O)C(=O)N[C@H]2C(=O)N[C@H]3C(=O)N[C@H](C(=O)N[C@H](C(=O)NCCCNC(=O)[C@H](O)[C@@H](O)[C@H](O[C@H]4O[C@@H](CO)[C@@H](O)[C@@H](O)[C@@H]4O)[C@H](O)CO)c4cc(O)cc(O)c4-c4cc3ccc4O)[C@H](O)c3ccc(c(Cl)c3)Oc3cc2cc(c3O[C@@H]2O[C@H](CO)[C@@H](O)[C@H](O)[C@H]2O[C@H]2C[C@](C)(N)[C@H](O)[C@H](C)O2)Oc2ccc(cc2Cl)[C@H]1O,MIC,Staphylococcus aureus [20],0.3 µM
same,MIC,Staphylococcus aureus [21],0.4 µM
same,MIC,Enterococcus faecium,36 µM
same,MIC,Enterococcus faecalis,30 µM
Oc1nc2ccccc2nc1O,MIC,[23],> 59.2 µM
C[C@H]1OC(c2cccc(O)c2O)=N[C@@H]1C(=O)N[C@@H](COC(=O)c1cc(N[C@@H](C(=O)N[C@@H]2C(=O)N3C(C(=O)O)=C(Cl)CS[C@H]23)c2ccccc2)cc(O)c1O)C(=O)NCCCCN(O)C=O,MIC,Acinetobacter baumannii [1],0.5 µg/mL
CC(=O)Oc1cccc(C(=O)NCCCC(CCCNC(=O)c2cccc(OC(C)=O)c2OC(C)=O)(CCCNC(=O)c2cccc(OC(C)=O)c2OC(C)=O)NC(=O)CCC(=O)NC(C(=O)NC2C(=O)N3C2SC(C)(C)[C@@H]3C(=O)O)c2ccccc2)c1OC(C)=O (stereo partly specified),MIC,Pseudomonas aeruginosa [2],0.05 µM
same,MIC,Pseudomonas aeruginosa [3],0.05 µM
same,MIC,Pseudomonas aeruginosa [4],0.05 µM
same,MIC,Pseudomonas aeruginosa [5],0.05 µM
CN[C@H](CC(C)C)C(=O)N[C@H]1C(=O)N[C@@H](CC(N)=O)C(=O)N[C@H]2C(=O)N[C@H]3C(=O)N[C@H](C(=O)N[C@H](C(=O)NCCCNC(=O)[C@H](O)[C@@H](O)[C@H](O)[C@H](O)CO)c4cc(O)cc(O)c4-c4cc3ccc4O)[C@H](O)c3ccc(c(Cl)c3)Oc3cc2cc(c3O[C@@H]2O[C@H](CO)[C@@H](O)[C@H](O)[C@H]2O[C@H]2C[C@](C)(N)[C@H](O)[C@H](C)O2)Oc2ccc(cc2Cl)[C@H]1O,MIC,Staphylococcus aureus [20],0.9 µM
same,MIC,Staphylococcus aureus [21],0.6 µM
same,MIC,Enterococcus faecium,54 µM
same,MIC,Enterococcus faecalis,60 µM
C[C@@H](O)[C@H]1C(=O)N2C(C(=O)O)=C(S[C@H]3C[C@@H](C(=O)N(C)C)N(C(=O)CCCc4cn(CCOCCOCCOCCNC(=O)c5cc(O)c(O)c(C(=O)N[C@H]6COC(=O)[C@@H](NC(=O)c7cc([C@@H]8O[C@H](CO)[C@@H](O)[C@H](O)[C@H]8O)cc(O)c7O)COC(=O)[C@@H](NC(=O)c7cc([C@@H]8O[C@H](CO)[C@@H](O)[C@H](O)[C@H]8O)cc(O)c7O)COC6=O)c5)nn4)C3)[C@H](C)[C@H]12,MIC,Salmonella typhimurium,0.01 µM
same,MIC,Salmonella enteritidis,0.01 µM
CCCCCCCCCC(=O)N[C@@H](Cc1c[nH]c2ccccc12)C(=O)N[C@H](CC(N)=O)C(=O)N[C@@H](CC(=O)O)C(=O)N[C@@H]1C(=O)NCC(=O)N[C@@H](CCCNC(=O)CCCC(=O)N(O)CCCCCNC(=O)CCCN(CCCCNC(=O)c2cccc(O)c2O)CCCNC(=O)c2cccc(O)c2O)C(=O)N[C@@H](CC(=O)O)C(=O)N[C@H](C)C(=O)N[C@@H](CC(=O)O)C(=O)NCC(=O)N[C@H](CO)C(=O)N[C@@H](C(C)CC(=O)O)C(=O)N[C@@H](CC(=O)c2ccccc2N)C(=O)O[C@@H]1C (stereo partly specified),MIC,Acinetobacter baumannii [6],0.2 µM
same,MIC,Acinetobacter baumannii [7],0.2 µM
same,MIC,Acinetobacter baumannii [8],0.2 µM
same,MIC,Acinetobacter baumannii [9],0.2 µM
same,MIC,Acinetobacter baumannii [10],0.2 µM
same,MIC,Acinetobacter baumannii [11],0.2 µM
same,MIC,Acinetobacter baumannii [12],0.2 µM
same,MIC,Acinetobacter baumannii [13],0.2 µM
same,MIC,Acinetobacter baumannii [14],0.2 µM
same,MIC,Acinetobacter baumannii [15],0.2 µM
same,MIC,Acinetobacter baumannii [16],0.2 µM
same,MIC,Acinetobacter baumannii [17],0.2 µM
same,MIC,Acinetobacter baumannii [18],0.2 µM
same,MIC,Acinetobacter baumannii [19],0.2 µM
